# PMC12013143, “Ionic liquid-iontophoresis mediates transdermal delivery of sparingly soluble drugs” (Drug Delivery, 2025)
# Several values for one entry are separate records, joined by “and”; a condition that tells them apart may be missing. Equal values may be shown once.
# Legend:
# [1] = In vitro skin permeation/retention with iontophoresis (IS) or IL-IS, horizontal diffusion cells; assay type: in vitro ADME, rat; details: for Permeation applying IL-IS relative to IL alone / Permeation applying IL-IS relative to IS alone / Effect of current intensity on retention amount / Effect of current intensity on transdermal permeation / Increase of transdermal permeation by IL-IS / Increase of transdermal permeation by IL / Retention in negative current relative to positive current / Permeation in negative current relative to positive current: 20% [Cho] [Cin]; for Effect of current intensity on retention amount / Effect of current intensity on transdermal permeation: negative current 0.1–0.3 mA; for Increase of transdermal permeation by IL-IS / Increase of transdermal permeation by IL / Increase of transdermal permeation by IS / Permeation in negative current relative to positive current: 10 h cumulative penetration; for Increase of transdermal permeation by IL: no current; for Increase of transdermal permeation by IS: no IL; for Retention in negative current relative to positive current / Permeation in negative current relative to positive current: 0.3 mA
# Method: (§1) Anesthetize rats by intraperitoneal injection with a dose of 1.0 g/kg urethane solution. Then remove the back hair using a pet shaver. Carefully remove the muscle tissue from the inner side of the skin with a surgical knife, cut it into small pieces, soak it in physiological saline for 30 min, cover the diffusion cell opening, and secure it with a clip. Intact rat skin was positioned between two cells, with the SC facing the donor compartment. The drugs were precisely measured at a weight of 4.00 mg each and subsequently dissolved in 4 mL of ILs or other control solutions, and added in donor compartment. The 0.01 M PBS (pH 6.8, 4.0 mL) was chosen as receptor medium. Sampling of ILs was conducted at various time points, specifically at 0, 4, 6, 8, 10, and 24 h. Following each sampling, 2.0 mL (all receptor medium was removed at the 10-h time point) of receptor medium was replaced with fresh PBS solution. The transdermal penetration of IS or IL-IS was conducted using an electroosmosis apparatus (Dajia DL-Z, China) to ensure a consistent current intensity of 0–0.5 mA. […] A receiving solution (2.0 mL) was collected at 1, 2, 4, 6, 8, and 10 h. After skin permeation experiments, rat skins were subsequently removed from cells, cut into pieces, and immersed in methanol for 12 h. The samples were then diluted with mobile phase at a ratio of 1:10. Following centrifugation for 10 min at 9000 rpm, the resulting supernatants were analyzed using HPLC, as previously described.
# (§2) The drug skin permeation amount of solution system was calculated through concentration and volume of each sampling point: Q=[Cn×Vo+∑i=1n−1Ci×V]/S
# (§3) In this experiment, Vo: 4.0 mL; V: 2.0 mL (24 h point: 4 mL); S: 0.74 cm^2.
# (§4) The drug skin retention amount was calculated as follows: R=M/S
# [2] = In vitro skin permeation/retention with IL alone, horizontal diffusion cells; assay type: in vitro ADME; details: excised rat skin; for Permeation/retention enhancement effect on apremilast: 20% IL (label = IL); for Effect on promoting permeation/retention of indomethacin: 20% IL or 1%SDS (label = vehicle)
# Method: as §1, §2, §3, §4
# physchem = details: Solubilities
# [3] = General properties of ILs diluted to 20% (w/w) with water: pH, electrical conductivity, viscosity; assay type: physicochemical; details: 20%IL in water
# Method: Viscosity was determined using a viscometer (DV2T, Brookfield, America).
# HaCaT cells = test: Cytotoxicity of ILs, CCK-8 assay; assay type: cell-based, human; details: 24 h incubation
# Method: The cytotoxicity of ILs to HaCaT cells was assessed using the Cell Counting Kit 8 (CCK-8) assay. The cell suspension (100 µL) was transferred to a 96-well plate at 8 × 10^3 cells/mL. Then, the 96-well plate was placed in a cell incubator. After 24 h, the medium was removed, and the cells were washed with phosphate-buffered saline (PBS, pH 7.4, 0.1 M). Then, ILs at different concentrations was added to each well for stimulation. After incubation for 24 h, CCK-8 solution (10 µL) was added to each well, followed by incubation for 2 h. The absorbance was measured at 450 nm using a microplate reader (SpectraMax iD5, Molecular Devices, America), and the cell viability was calculated.
# rat skin = test: CLSM of rhodamine B penetration into rat skin in vivo, with or without endocytosis inhibitors; details: for Fluorescence intensity after treatment with endocytosis inhibitors: nystatin, indomethacin, chlorpromazine applied 1 h before
# [4] = pH 4.5, aqueous buffer, thermodynamic from solid
# [5] = pH 6.8, aqueous buffer, thermodynamic from solid
# [6] = pH 9, aqueous buffer, thermodynamic from solid
# [7] = water, thermodynamic from solid
# [8] = 20% IL (label = IL), negative current 0.3 mA, 10 h
# [9] = aripiprazole in 20% IL (label = IL)
Compound,"Permeation applying IL-IS relative to IL alone ([1]; negative current 0.3 mA, 10 h)",Effect of current intensity on retention amount ([1]; 10 h),Effect of current intensity on transdermal permeation ([1]; 10 h),Increase of transdermal permeation by IL-IS ([1]; negative current 0.3 mA),Increase of transdermal permeation by IL [1],Increase of transdermal permeation by IS ([1]; negative current 0.3 mA),Cumulative permeation after 24 h ([2]; drug in water),Skin retention amount after 24 h ([2]; drug in water),solubility (physchem; [4]),solubility (physchem; [5]),solubility (physchem; [6]),solubility (physchem; [7]),Electric conductivity [3],Viscosity [3],other results
CN(Cc1ccc(C(C)(C)C)cc1)Cc1cccc2ccccc12 [butenafine],~16.5 fold,,,,,,,,,,,,,,"Permeation applying IL-IS relative to IS alone ([1]; negative current 0.3 mA, 10 h): ~11.0 fold"
COc1ccc2c(c1)c(CC(=O)O)c(C)n2C(=O)c1ccc(Cl)cc1 [indomethacin],,did not result in a significant difference,not significantly enhanced,little effect,3.3 fold,1.6 fold,10.06 µg/cm^2,6.1 µg/cm^2,2630 ± 648 µg/mL,21.5 ± 5.7 µg/mL,2230 ± 136 µg/mL,28.5 ± 0.7 µg/mL,,,
CCOc1cc([C@@H](CS(C)(=O)=O)N2C(=O)c3cccc(NC(C)=O)c3C2=O)ccc1OC [apremilast],,did not result in a significant difference,not significantly enhanced,16 fold,31 fold,little effect,8.1 µg/cm^2,6.1 µg/cm^2,18.3 ± 7.2 µg/mL,13.5 ± 0.5 µg/mL,6.8 ± 1 µg/mL,21.8 ± 3.8 µg/mL,,,"Retention in negative current relative to positive current ([1]; 10 h): ~3.4 fold; Permeation in negative current relative to positive current [1]: about 3.2 fold; Transdermal permeation versus [Cho] [Cin] concentration ([2]; IL alone, 24 h): linear correlation; Skin retention amount versus [Cho] [Cin] concentration ([2]; [Cho] [Cin] 0–20%, IL alone): no significant change; solubility (physchem): 21.8 ± 3.8 µg/mL"
C[N+](C)(C)CCO.O=C([O-])C(O)C(O)C(=O)O (stereo not drawn) [[Cho] [Tar]],,,,,,,,,,,,,28.74 ± 0.01 ms/cm,1.48 ± 0.01 mPa·s,"Permeation enhancement effect on aripiprazole when IL-IS applied [1, 8]: did not have significant permeation enhancement effects; Permeation/retention enhancement effect on apremilast ([2]; 24 h): did not have significant permeation/retention enhancement effects; Effect on promoting permeation/retention of indomethacin ([2]; 24 h): no significant effect"
"CCCCCCCCCCCCOS(=O)(=O)[O-].[Na+] [1%SDS, sodium dodecyl sulfate]",,,,,,,,,,,,,,,Effect on promoting permeation/retention of indomethacin ([2]; 24 h): no significant effect
CC(=O)[O-].C[N+](C)(C)CCO [[Cho] [Ace]],,,,,,,,,,,,,32.12 ± 0.03 ms/cm,1.69 ± 0.08 mPa·s,"Permeation enhancement effect on aripiprazole when IL-IS applied [1, 8]: did not have significant permeation enhancement effects; pH [3]: 9.37 and 9.37 ± 0.01; Permeation/retention enhancement effect on apremilast ([2]; 24 h): did not have significant permeation/retention enhancement effects; 24 h cumulative permeability of indomethacin relative to water ([2]; indomethacin in 20% IL (label = IL)): 4.8 times; Cytotoxicity of ILs, descending order (from LD 50) (HaCaT cells): [Cho] [Ole] > [Cho] [Cin] > [Cho] [Ger] > [Cho] [Ace] > [Cho] [Tar]"
C[N+](C)(C)CCO.O=C([O-])/C=C/c1ccccc1 [[Cho] [Cin]],,,,,,,,,,,,,18.60 ± 0.06 ms/cm,1.97 ± 0.04 mPa·s,"Increase of 10 h cumulative permeation of aripiprazole with IL-IS compared to IL or IS alone ([1]; 20% IL (label = IL), negative current 0.3 mA): 14 fold; pH [3]: 8.27 and 8.27 ± 0.01; Permeation of aripiprazole after 24 h, in words [2, 9]: did not show a significant difference; Skin retention of aripiprazole after 24 h, in words [2, 9]: surpassed that of other ILs"
O=C1CCc2ccc(OCCCCN3CCN(c4cccc(Cl)c4Cl)CC3)cc2N1 [aripiprazole],about 14 fold,did not result in a significant difference,positive linear correlation,14 fold,little effect,little effect,negligible,1.1 µg/cm^2,152 ± 16.3 µg/mL,8.5 ± 3.2 µg/mL,0.79 ± 0.5 µg/mL,0.94 ± 0.15 µg/mL,,,"Retention in negative current relative to positive current ([1]; 10 h): ~3.0 fold; Permeation in negative current relative to positive current [1]: ~5.0 fold; Transdermal penetration versus [Cho] [Cin] concentration under IL-IS ([1]; [Cho] [Cin] 0–20%, negative current 0.3 mA, 10 h): increase with the rise in the concentration; Permeation at different pH values ([1]; pH 4.5, pH 6.8 and pH 9.0, 10 h, IS-related factors): no significant change; Cumulative permeation after 24 h ([2]; drug in 1% SDS): 0.35 µg/cm^2; Skin retention amount after 24 h ([2]; drug in 1% SDS): 2.6 µg/cm^2"
COc1cc2nc(N3CCN(C(=O)C4CCCO4)CC3)nc(N)c2cc1OC (stereo not drawn) [terazosin],~2.6 fold,,,,,,,,,,,,,,"Permeation applying IL-IS relative to IS alone ([1]; negative current 0.3 mA, 10 h): ~5.2 fold"
CCN(CC)c1ccc2c(-c3ccccc3C(=O)O)c3ccc(=[N+](CC)CC)cc-3oc2c1 [rhodamine B],,,,,,,,,,,,,,,"Fluorescence intensity after treatment with endocytosis inhibitors (rat skin; IL, IS and IL-IS groups): partially suppressed; Fluorescence intensity after treatment with endocytosis inhibitors (rat skin; control gel group): no substantial alteration; Transmission pathway in skin (overlap with DAPI) (rat skin; rat skin in vivo, 10 h): primarily occurred through accessory organs; CLSM fluorescence intensity and depth in skin, order of treatments (rat skin; rat skin in vivo, 10 h, control gel, IL gel, IS, IL-IS): IL-IS > IS > IL > Control"
